A short description of data set [1]: Pharmacokinetic assay in rats. In kind it is in vivo. To be noted: male, rat, po, SD rats, p.o. 5 mg/kg, plasma, 0.5% CMC-Na (1% Tween 80); for AUC(0-t): read-out: Area under curve AUC0-t; for MRT inf: read-out: Average residence time MRT0-∞; for half-life: read-out: Half life t1/2 (converted); for Tmax: read-out: Peak time tmax; for Cmax: read-out: Plasma concentration Cmax. How it is done: Test Example 4. Pharmacokinetic Assay in Rats
SD rats were used as test animals. The pharmacokinetic behavior of the compounds of Examples was studied in rat body (plasma) by orally administration at a dose of 5 mg/kg.
Male SD rats (3 rats per group), purchased from Shanghai Jiesijie Laboratory Animal Co., LTD, with Certificate No.: SCXK (Shanghai) 2013-0006 N0.311620400001794.
5 g of hydroxyethyl cellulose (HEC, CMC-Na, viscosity: 800-1200 Cps) was weighed and dissolved in 1000 mL of purified water, followed by addition of 10 g of Tween80.
After an overnight fast, male SD rats (3 rats per group) were administered p.o. with the test compound at a dose of 5 mg/kg and a volume of 10 mL/kg.
0.2 mL of blood was taken from the jugular vein of the rat before administration and at 0, 0.5, 1, 2, 4, 6, 8 and 24 hours after administration. The samples were stored in EDTA-K2 tubes, and centrifuged for 6 minutes at 4° C., 6000 rpm to separate the plasma. The plasma samples were stored at −80° C.
1) 160 μL of acetonitrile was added to 40 μL of the plasma sample for precipitation, and then the mixture was centrifuged at 3500×g for 5 to 20 minutes.
2) After the above process, 100 μL of the supernatant was taken to analyze the concentration of the test compound by LC/MS/MS.
2.7 Liquid Chromatography Analysis • Liquid chromatography condition: Shimadzu LC-20AD pump • Mass spectrometry condition: AB Sciex API 4000 mass spectrometer • Chromatographic column: phenomenex Gemiu 5 um C18 50×4.6 mm • Mobile phase: Eluent A was 0.1% formic acid in water, and Eluent B was acetonitrile • Flow rate: 0.8 mL/min • Elution time: 0-4.0 minutes, the eluent is as follows:
The main parameters of pharmacokinetics were calculated by WinNonlin 8.2.

A short description of data set [2]: Metabolic stability in liver microsome (mouse). Type of data set: in vitro ADME. To be noted: mouse liver microsome 0.5 mg/mL, compound 1 μM; for half-life at 1 μM: liver microsomes, NADPH/UDPGA. How it is done:
(§1) Test Example 5. Assay of Metabolic Stability in Liver Microsome
(§2) The objective of the experiment is to determine the stability of the compounds of the Examples in liver microsome of mouse, rat, dog and human.
(§3) Formulation of the working solution of the compound: The stock solution of the compound was added to phosphate buffer, and the final concentration was 20 μM.
(§4) Liver microsome was diluted with 100 mM phosphate buffer to obtain a final concentration of 0.625 mg/mL.
(§5) NADPH (reduced nicotinamide adenine dinucleotide phosphate) and UDPGA (uridine diphosphate glucuronic acid) were weighed respectively, followed by addition of 100 mM phosphate buffer. The final concentrations were 20 mM.
(§6) 1 mg of Alamethicin was weighed, to which 200 μL of DMSO was added to obtain a 5 mg/mL solution. The solution was diluted with phosphate buffer to obtain a final concentration of 50 μg/mL.
(§7) 2.5 Formulation of the reaction stop solution Stop solution: Cold acetonitrile containing 100 ng/mL labetalol hydrochloride and 400 ng/mL tolbutamide as internal standards.
(§8) 400 μL of the prepared liver microsome, 25 μL of the working solution of the compound and 25 μL of Alamethicin were added to a 96-well plate successively, which was then pre-incubated at 37° C. for 10 min. 50 μL of the prepared NADPH/UDPGA was added to initiate the reaction, and the plate was incubated at 37° C. The total volume of the reaction system was 500 μL. The final contents of the components were as follows: […]
For orientation: Liver microsomes are vesicles of endoplasmic reticulum, rich in cytochrome P450 enzymes.

Data set [3] can be described thus: Metabolic stability in liver microsome (human). Type of data set: in vitro ADME. To be noted: human liver microsome 0.5 mg/mL, compound 1 μM; for t1/2 / half-life at 1 μM: NADPH/UDPGA; for half-life at 1 μM: liver microsomes. How it is done:
as §1, §2, §3, §4, §5, §6, §7, §8

In data set [4] the target is T1, CYP450 enzyme isoform 1A2 (Homo sapiens, UniProt P05177).
T1 construct: single-point method using human liver microsome incubation system; from tissue; host or cells: human liver microsomes
T1 sequence (P05177 1-516): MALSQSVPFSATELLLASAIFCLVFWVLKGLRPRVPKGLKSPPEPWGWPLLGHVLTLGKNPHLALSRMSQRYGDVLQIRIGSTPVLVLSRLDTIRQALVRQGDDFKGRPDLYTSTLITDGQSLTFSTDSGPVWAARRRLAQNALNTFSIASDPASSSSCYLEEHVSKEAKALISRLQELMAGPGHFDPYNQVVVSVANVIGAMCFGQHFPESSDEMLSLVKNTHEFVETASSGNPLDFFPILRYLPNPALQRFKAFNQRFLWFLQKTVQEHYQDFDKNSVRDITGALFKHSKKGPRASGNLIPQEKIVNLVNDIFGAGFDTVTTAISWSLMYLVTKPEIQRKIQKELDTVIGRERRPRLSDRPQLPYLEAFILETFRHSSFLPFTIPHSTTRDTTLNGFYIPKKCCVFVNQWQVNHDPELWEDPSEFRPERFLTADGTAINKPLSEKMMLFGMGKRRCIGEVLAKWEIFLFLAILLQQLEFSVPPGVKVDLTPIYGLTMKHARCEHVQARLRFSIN
The data set can be described thus: CYP enzyme single-point inhibition assay, 1A2. Type of data set: in vitro ADME. The note with it: human liver microsome, single-point method. How it is done: (§9) Test Example 7. CYP Enzyme Single-Point Inhibition Assay
(§10) The inhibition of the compounds on CYP450 enzyme isoformwas rapidly predicted by single-point method using human liver microsome incubation system.
(§11) 2.5 mM NADPH: 4.165 mg of NADPH (reduced nicotinamide adenine dinucleotide phosphate) was weighed, followed by addition of 100 mM phosphate buffer to 2 mL. 0.25 mg/mL microsome solution: 4 mL of 100 mM phosphate buffer was added to 50 μL of 20 mg/mL microsome solution and mixed well.
(§12) The test compound of the Example was weighed, diluted to 10 mM with DMSO and then to 100 μM with 100 mM phosphate buffer.
(§13) 1. 40 μL of liver microsome, 10 μL of substrate and 10 μL of the test compound were added to a 96-well plate and pre-incubated for 3 min.
(§14) 2. 40 μL of NADPH was added.
(§15) 3. 300 μL of acetonitrile stop solution containing internal standard was added at 20 min.
(§16) 4. The sample was centrifuged and injected.

Data set [5] has as its target T2, CYP450 enzyme isoform 2C9 (Homo sapiens, UniProt P11712).
T2 construct: single-point method using human liver microsome incubation system; from tissue; host or cells: human liver microsomes
The data set can be described thus: CYP enzyme single-point inhibition assay, 2C9. In kind it is in vitro ADME. The note with it: human liver microsome, single-point method. On the procedure: as §9, §10, §11, §12, §13, §14, §15, §16

Data set [6] addresses T3, CYP450 enzyme isoform 2D6 (Homo sapiens, UniProt P10635).
T3 construct: single-point method using human liver microsome incubation system; from tissue; host or cells: human liver microsomes
The data set can be described thus: CYP enzyme single-point inhibition assay, 2D6. In kind it is in vitro ADME. To be noted: human liver microsome, single-point method. On the procedure: as §9, §10, §11, §12, §13, §14, §15, §16

Data set [7] in a line: Metabolic stability in liver microsome (dog). In kind it is in vitro ADME. The note with it: dog liver microsome 0.5 mg/mL, compound 1 μM; for half-life at 1 μM: liver microsomes, NADPH/UDPGA. How it is done:
as §1, §2, §3, §4, §5, §6, §7, §8

Each structure is given as a SMILES string.

The source of these data is patent publication US20230118497A1, “PYRAZOLE-CONTAINING POLYCYCLIC DERIVATIVE INHIBITOR, PREPARATION METHOD THEREFOR AND APPLICATION THEREOF” (Shanghai Hansoh Biomedical Co., Ltd., priority 2019, published 2023).

T3 sequence (P10635 whole entry, canonical isoform): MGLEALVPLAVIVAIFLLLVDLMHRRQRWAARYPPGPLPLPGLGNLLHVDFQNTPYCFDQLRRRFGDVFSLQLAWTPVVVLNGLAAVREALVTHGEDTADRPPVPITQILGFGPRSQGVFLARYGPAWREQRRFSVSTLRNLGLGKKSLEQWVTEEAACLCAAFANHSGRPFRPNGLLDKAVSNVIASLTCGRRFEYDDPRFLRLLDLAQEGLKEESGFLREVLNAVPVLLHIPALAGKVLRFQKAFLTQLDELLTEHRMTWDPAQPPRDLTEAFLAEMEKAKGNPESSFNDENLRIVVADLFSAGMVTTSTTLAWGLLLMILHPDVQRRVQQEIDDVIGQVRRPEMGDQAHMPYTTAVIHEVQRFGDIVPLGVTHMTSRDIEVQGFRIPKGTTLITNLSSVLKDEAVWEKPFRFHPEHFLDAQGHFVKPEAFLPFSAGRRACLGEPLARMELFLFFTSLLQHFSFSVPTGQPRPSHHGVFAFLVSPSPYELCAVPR
T2 sequence (P11712 whole entry, canonical isoform): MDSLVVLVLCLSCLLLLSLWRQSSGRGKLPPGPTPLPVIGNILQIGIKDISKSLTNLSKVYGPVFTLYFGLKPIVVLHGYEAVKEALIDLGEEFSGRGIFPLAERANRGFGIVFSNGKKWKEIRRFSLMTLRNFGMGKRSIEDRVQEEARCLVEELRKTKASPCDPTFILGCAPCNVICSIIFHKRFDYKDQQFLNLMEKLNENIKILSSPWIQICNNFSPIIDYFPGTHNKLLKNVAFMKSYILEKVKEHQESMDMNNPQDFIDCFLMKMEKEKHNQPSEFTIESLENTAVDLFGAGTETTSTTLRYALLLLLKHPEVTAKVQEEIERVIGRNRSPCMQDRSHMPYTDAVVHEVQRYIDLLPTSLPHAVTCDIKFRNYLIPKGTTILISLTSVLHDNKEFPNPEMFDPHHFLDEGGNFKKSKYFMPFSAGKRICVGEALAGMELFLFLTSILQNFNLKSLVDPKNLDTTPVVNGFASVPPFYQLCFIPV

For `CCc1cc2n(CC(=O)Nc3ccc(F)cn3)c(=O)c3ccc(C(F)(F)F)nc3n2n1` [Example 34, 2-(2-Ethyl-5-oxo-8-(trifluoromethyl)pyrazolo[1,5-a]pyrido[3,2-e]pyrimidin-4(5H)-yl)-N-(5-fluoropyridin-2-yl)acetamide], in data set [1], the AUC(0-t) amounted to 5780 ng·h/mL, the MRT inf came out at 6.2 h, the half-life is 3.5 h and the Tmax was found to be 4 h. In addition, the Cmax in data set [1] stood at 904 ng/mL. Further, in data set [2], the half-life at 1 μM amounted to 3.11 h and the “Remaining (%, 60 min)” value is reported as 81.3%. In data set [3], the “Remaining (%, 60 min)” value is listed as 113.9% and the t1/2 entry is “∞”. In data set [4], this compound registered an IC50 of 24.9 µM. For the same compound, the IC50 in data set [5] was greater than 100 µM. The compound further showed an IC50 in data set [6] greater than 100 µM.

As to `O=C(Cn1c(=O)c2ccc(C(F)(F)F)nc2n2nc(Br)cc12)Nc1ccc(F)cn1` [Example 61-A, 2-(2-bromo-5-oxo-8-(trifluoromethyl)pyrazolo[1,5-a]pyrido[3,2-e]pyrimidin-4(5H)-yl)-N-(5-fluoropyridin-2-yl)acetamide], in data set [1], the AUC(0-t) turned out to be 12000 ng·h/mL, the MRT inf worked out at 5.8 h, the half-life is 8 h and the time to peak (Tmax) is 2 h. Also, the Cmax in data set [1] turned out to be 1550 ng/mL. Also, in data set [2], the half-life at 1 μM was determined as 6.82 h and the “Remaining (%, 60 min)” value was determined as 92.5%. Further, in data set [7], the “Remaining (%, 60 min)” value was found to be 96.0% and the half-life at 1 μM turned out to be 15.6 h. Moreover, in data set [3], the “Remaining (%, 60 min)” value was 100.4% and the t1/2 result is given as “∞”. In data set [4], this compound had an IC50 of 72.1 µM. The same compound displayed a 50% inhibitory concentration (IC50) in data set [5] greater than 100 µM. Besides, the concentration for half-maximal inhibition (IC50) in data set [6] is greater than 100 µM.

With `N#Cc1cc2n(CC(=O)Nc3ccc(F)cn3)c(=O)c3ccc(C(F)(F)F)nc3n2n1` [Example 68, 2-(2-Cyano-5-oxo-8-(trifluoromethyl)pyrazolo[1,5-a]pyrido[3,2-e]pyrimidin-4(5H)-yl)-N-(5-fluoropyridin-2-yl)acetamide], in data set [1], the AUC(0-t) worked out at 9850 ng·h/mL, the MRT inf came out at 3.5 h, the half-life is 1.8 h and the time of peak concentration (Tmax) was determined as 4 h. The Cmax in data set [1] came out at 1880 ng/mL. Moreover, in data set [2], the half-life at 1 μM amounted to 2.75 h and the “Remaining (%, 60 min)” value was 91.6%. Further, in data set [7], the “Remaining (%, 60 min)” value was determined as 99.0% and the half-life at 1 μM is 22.5 h. In data set [3], the “Remaining (%, 60 min)” value came to 101.2% and the half-life at 1 μM was 23.4 h. In data set [4], this compound gave an IC50 greater than 100 µM. Besides, the concentration for half-maximal inhibition (IC50) in data set [5] was greater than 100 µM. In data set [6], the half-maximal inhibitory concentration (IC50) was greater than 100 µM.

Regarding `O=C(Cn1c(=O)c2ccc(C(F)(F)F)nc2n2nccc12)Nc1ccc(F)cn1` [Example 78, N-(5-Fluoropyridin-2-yl)-2-(5-oxo-8-(trifluoromethyl)pyrazolo[1,5-a]pyrido[3,2-e]pyrimidin-4(5H)-yl)acetamide], in data set [1], the AUC(0-t) was 6810 ng·h/mL, the MRT inf was 3.7 h, the half-life is 1.7 h and the time of peak concentration (Tmax) is 2 h. In data set [1], the Cmax turned out to be 1220 ng/mL. For the same compound, in data set [2], the half-life at 1 μM was found to be 568 h and the “Remaining (%, 60 min)” value was determined as 99.3%. Moreover, in data set [7], the “Remaining (%, 60 min)” value is 93.4% and the half-life at 1 μM was found to be 11.2 h. In data set [3], the “Remaining (%, 60 min)” value came to 97.5% and the half-life at 1 μM was 14.7 h. Also, the half-maximal inhibitory concentration (IC50) in data set [4] was greater than 100 µM. Also, in data set [5], the IC50 is greater than 100 µM. Also, the 50% inhibitory concentration (IC50) in data set [6] is greater than 100 µM.

With `N#Cc1cnn2c3nc(C(F)(F)F)ccc3c(=O)n(CC(=O)Nc3ccc(F)cn3)c12` [Example 80, 2-(3-Cyano-5-oxo-8-(trifluoromethyl)pyrazolo[1,5-a]pyrido[3,2-e]pyrimidin-4(5H)-yl)-N-(5-fluoropyridin-2-yl)acetamide], in data set [1], the AUC(0-t) was determined as 21300 ng·h/mL, the MRT inf was 13.6 h, the half-life was 11.3 h and the time to peak (Tmax) was 4 h. In data set [1], the Cmax stood at 2190 ng/mL.

In general, Tmax refers to the time at which the peak concentration occurs. In general, IC50 refers to the concentration that inhibits the measured activity by half. Read a low IC50 as greater potency.
